# Article PMC9558907, “Synthesis and pharmacological evaluation of newly detected synthetic cannabinoid receptor agonists AB-4CN-BUTICA, MMB-4CN-BUTINACA, MDMB-4F-BUTICA, MDMB-4F-BUTINACA and their analogs” (Frontiers in Psychiatry, 2022)
# Key:
# human CB1 [1] = biological target: T1, human CB1 (Homo sapiens, UniProt P21554); test: fluorescence-based membrane potential assay (GIRK activation) in AtT20 cells; format: cell-based; set-up: expressed in transfected cells; host or cells: mouse AtT20 FlpIn cells; details: for hCB1 Emax ±SEM: normalised to 1 μM CP55,940; for hCB1 maximal response at 10 μM (footnote d): highest concentration tested, curve not fitted
# T1 sequence (P21554 whole entry): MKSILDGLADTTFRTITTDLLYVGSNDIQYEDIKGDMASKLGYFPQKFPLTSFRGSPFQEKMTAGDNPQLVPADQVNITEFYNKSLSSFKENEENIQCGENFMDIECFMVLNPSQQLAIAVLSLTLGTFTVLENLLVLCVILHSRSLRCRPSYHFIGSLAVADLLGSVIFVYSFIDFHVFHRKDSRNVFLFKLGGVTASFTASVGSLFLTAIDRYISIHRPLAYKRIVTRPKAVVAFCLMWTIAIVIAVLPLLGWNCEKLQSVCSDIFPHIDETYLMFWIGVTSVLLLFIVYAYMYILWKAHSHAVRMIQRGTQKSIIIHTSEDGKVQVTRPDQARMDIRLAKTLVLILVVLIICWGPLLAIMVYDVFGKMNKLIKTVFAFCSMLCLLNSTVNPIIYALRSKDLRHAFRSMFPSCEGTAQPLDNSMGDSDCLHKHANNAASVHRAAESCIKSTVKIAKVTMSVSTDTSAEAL
# human CB2 [2] = biological target: T2, human CB2 (Homo sapiens, UniProt P34972); test: as above; format: cell-based; set-up: expressed in transfected cells; host or cells: mouse AtT20 FlpIn cells; details: for hCB2 Emax ±SEM: normalised to 1 μM CP55,940
# T2 sequence (P34972 whole entry): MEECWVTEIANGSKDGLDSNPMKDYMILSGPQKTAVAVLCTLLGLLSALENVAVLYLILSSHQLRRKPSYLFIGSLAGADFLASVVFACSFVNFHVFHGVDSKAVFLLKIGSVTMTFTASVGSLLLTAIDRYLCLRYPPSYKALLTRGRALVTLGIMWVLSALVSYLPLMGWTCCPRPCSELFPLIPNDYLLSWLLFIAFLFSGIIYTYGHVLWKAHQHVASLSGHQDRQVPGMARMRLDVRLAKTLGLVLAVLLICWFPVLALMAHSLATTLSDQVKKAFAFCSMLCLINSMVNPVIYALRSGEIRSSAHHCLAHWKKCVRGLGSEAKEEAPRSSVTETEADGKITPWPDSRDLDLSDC
# human CB1 [3] = biological target: T1, human CB1; test: competitive radioligand binding assay, displacement of [3H]CP55,940, HEK cell membranes; set-up: expressed in transfected cells; host or cells: HEK293 cells, P2 membrane preparation; details: [3H]CP55,940 1 nM
# human CB2 [4] = biological target: T2, human CB2; test: as above; set-up: expressed in transfected cells; host or cells: HEK293 cells, P2 membrane preparation; details: [3H]CP55,940 1 nM
# [5] = hCB1 EC50, AtT20-hCB1, value in brackets after pEC50
# [6] = hCB2 EC50, AtT20-hCB2, value in brackets after pEC50
# [7] = hCB1 Ki, value in brackets after pKi
# [8] = hCB1 pKi ±SEM, mean ± SEM of 3 to 6 independent experiments
# [9] = hCB2 Ki, value in brackets after pKi
# [10] = hCB2 pKi ±SEM, mean ± SEM of 3 to 6 independent experiments
# [11] = AtT20-hCB1, DNC = did not converge, ND = < 50% change in fluorescence at 10 μM
# [12] = hCB1 pEC50 ±SEM, AtT20-hCB1, DNC = did not converge, ND = < 50% change in fluorescence at 10 μM
Structure (SMILES),hCB1 Emax ±SEM (human CB1 [1]; AtT20-hCB1),EC50 (human CB1 [1]; [5]) [nM],hCB2 Emax ±SEM (human CB2 [2]; AtT20-hCB2),EC50 (human CB2 [2]; [6]) [nM],Ki (human CB1 [3]; [7]) [nM],Ki (human CB1 [3]; [8]) [nM],Ki (human CB2 [4]; [9]) [nM],Ki (human CB2 [4]; [10]) [nM],melting point [°C],hCB1 maximal response at 10 μM (footnote d) (human CB1 [1]; AtT20-hCB1),hCB1 pEC50 ±SEM (human CB1 [1]; [11]),EC50 (human CB1 [1]; [12]) [nM],"hCB1 maximal response at 10 μM (footnote d) (human CB1 [1]; AtT20-hCB1, listed as APP-4CN-BUT7AICA (16))","hCB2 Emax ±SEM (human CB2 [2]; AtT20-hCB2, listed as APP-4CN-BUT7AICA (16))","EC50 (human CB2 [2]; hCB2 pEC50 ±SEM, AtT20-hCB2) [nM]","hCB1 maximal response at 10 μM (footnote d) (human CB1 [1]; AtT20-hCB1, listed as APP-4CN-BUTINACA (13))"
"COC(=O)[C@@H](NC(=O)c1cn(CCCCC#N)c2ncccc12)C(C)(C)C [Compound 23, methyl (S)-2-(1-(4-cyanobutyl)-1H-pyrrolo[2,3-b]pyridine-3-carboxamido)-3,3-dimethylbutanoate]","114 ± 5 % CP55,940",10.3,"106± 5 % CP55,940",12.6,9.2,9.33,2.4,2.45,,,,,,,,
"CC(C)(C)[C@H](NC(=O)c1cn(CCCCF)c2ncccc12)C(N)=O [Compound 32, (S)-N-(1-amino-3,3-dimethyl-1-oxobutan-2-yl)-1-(4-fluorobutyl)-1H-pyrrolo[2,3-b]pyridine-3-carboxamide]","112 ± 6 % CP55,940",46,"108 ± 2 % CP55,940",4.99,1300,1260,46,,95 to 96,,,,,,,
"CC(C)[C@H](NC(=O)c1cn(CCCCF)c2ncccc12)C(N)=O [Compound 31, (S)-N-(1-amino-3-methyl-1-oxobutan-2-yl)-1-(4-fluorobutyl)-1H-pyrrolo[2,3-b]pyridine-3-carboxamide]",,,"98 ± 4 % CP55,940",137,,> 10000,1400,1380,,"82 ± 4^d % CP55,940",DNC^b,,,,,
"COC(=O)[C@@H](NC(=O)c1cn(CCCCF)c2ccccc12)C(C)(C)C [Compound 7, methyl (S)-2-(1-(4-fluorobutyl)-1H-indole-3-carboxamido)-3,3-dimethylbutanoate]","114 ± 3 % CP55,940",3.43,"110 ± 3 % CP55,940",2.87,13.2,,,,,,,3.39,,,,
"COC(=O)[C@H](Cc1ccccc1)NC(=O)c1nn(CCCCC#N)c2ccccc12 [Compound 21, methyl (1-(4-cyanobutyl)-1H-indazole-3-carbonyl)-L-phenylalaninate]","115 ± 3 % CP55,940",8.72,"100 ± 2 % CP55,940",3.24,20.9,,3.8,,82.5 to 84.5,,,,,,,
"COC(=O)[C@@H](NC(=O)c1cn(CCCCC#N)c2ncccc12)C(C)C [Compound 22, methyl (1-(4-cyanobutyl)-1H-pyrrolo[2,3-b]pyridine-3-carbonyl)-L-valinate]","114 ± 7 % CP55,940",430,"95 ± 4 % CP55,940",68.3,1510,,316,,,,,,,,,
"COC(=O)[C@@H](NC(=O)c1nn(CCCCC#N)c2ccccc12)C(C)(C)C [Compound 20, methyl (S)-2-(1-(4-cyanobutyl)-1H-indazole-3-carboxamido)-3,3-dimethylbutanoate]","113 ± 2 % CP55,940",0.72,"101 ± 2 % CP55,940",3.56,1.29,,0.295,,,,,,,,,
"CC(C)(C)[C@H](NC(=O)c1nn(CCCCF)c2ccccc12)C(N)=O [Compound 29, (S)-N-(1-amino-3,3-dimethyl-1-oxobutan-2-yl)-1-(4-fluorobutyl)-1H-indazole-3-carboxamide]","116± 2 % CP55,940",1.61,"103 ± 2 % CP55,940",5.28,4.07,,0.69,,77 to 79,,,,,,,
"N#CCCCCn1cc(C(=O)N[C@@H](Cc2ccccc2)C(N)=O)c2cccnc21 [Compound 16, (S)-N-(1-amino-1-oxo-3-phenylpropan-2-yl)-1-(4-cyanobutyl)-1H-pyrrolo[2,3-b]pyridine-3-carboxamide]",,,,232,,> 10000,1860,,182 to 184,submaximal agonist activity,,,"25 ± 3^d % CP55,940","72 ± 3 % CP55,940",229,
"COC(=O)[C@@H](NC(=O)c1cn(CCCCF)c2ncccc12)C(C)C [Compound 38, methyl (1-(4-fluorobutyl)-1H-pyrrolo[2,3-b]pyridine-3-carbonyl)-L-valinate]","115 ± 16 % CP55,940",1390,"114 ± 6 % CP55,940",49.6,220,224,61,60.3,81 to 82,,,,,,,
"CC(C)[C@H](NC(=O)c1nn(CCCCF)c2ccccc12)C(N)=O [Compound 28, (S)-N-(1-amino-3-methyl-1-oxobutan-2-yl)-1-(4-fluorobutyl)-1H-indazole-3-carboxamide]","107 ± 2 % CP55,940",5.98,"96 ± 1 % CP55,940",4.85,,132,8.5,,188 to 190,,,,,,,
"CC(C)(C)[C@H](NC(=O)c1cn(CCCCC#N)c2ccccc12)C(N)=O [Compound 9, (S)-N-(1-amino-3,3-dimethyl-1-oxobutan-2-yl)-1-(4-cyanobutyl)-1H-indole-3-carboxamide]","115 ± 5 % CP55,940",10.2,"106 ± 6 % CP55,940",10.4,6.8,,5.5,,101 to 103,,,,,,,
"COC(=O)[C@@H](NC(=O)c1nn(CCCCF)c2ccccc12)C(C)C [Compound 36, methyl (1-(4-fluorobutyl)-1H-indazole-3-carbonyl)-L-valinate]","103 ± 2 % CP55,940",3.93,"100 ± 2 % CP55,940",3.76,,31.6,1.6,1.55,,,,,,,,
"COC(=O)[C@@H](NC(=O)c1nn(CCCCC#N)c2ccccc12)C(C)C [Compound 6, methyl (1-(4-cyanobutyl)-1H-indazole-3-carbonyl)-L-valinate]","117 ± 6 % CP55,940",3.61,"101 ± 4 % CP55,940",2.14,17.4,,6.46,,,,,,,,,
"CC(C)[C@H](NC(=O)c1nn(CCCCC#N)c2ccccc12)C(N)=O [Compound 11, (S)-N-(1-amino-3-methyl-1-oxobutan-2-yl)-1-(4-cyanobutyl)-1H-indazole-3-carboxamide]","111 ± 5 % CP55,940",26.3,"103 ± 1 % CP55,940",4.97,43.7,,24,,,,,,,,,
"COC(=O)[C@H](Cc1ccccc1)NC(=O)c1nn(CCCCF)c2ccccc12 [Compound 37, methyl (1-(4-fluorobutyl)-1H-indazole-3-carbonyl)-L-phenylalaninate]","106 ± 3 % CP55,940",5.62,"101 ± 3 % CP55,940",4.65,,33.9,0.5,0.457,,,,,,,,
"N#CCCCCn1nc(C(=O)N[C@@H](Cc2ccccc2)C(N)=O)c2ccccc21 [Compound 13, (S)-N-(1-amino-1-oxo-3-phenylpropan-2-yl)-1-(4-cyanobutyl)-1H-indazole-3-carboxamide]",,,"107 ± 11 % CP55,940",74.1,1100,1070,170,166,,"104 % CP55,940",DNC^b,,,,,"104 ± 3^d % CP55,940"
"COC(=O)[C@@H](NC(=O)c1nn(CCCCF)c2ccccc12)C(C)(C)C [Compound 8, methyl (S)-2-(1-(4-fluorobutyl)-1H-indazole-3-carboxamido)-3,3-dimethylbutanoate]","106 ± 3 % CP55,940",,"103 ± 5 % CP55,940",3.28,6.2,,0.1,0.12,,,,0.407,,,,
"COC(=O)[C@@H](NC(=O)c1cn(CCCCC#N)c2ccccc12)C(C)C [Compound 17, methyl (1-(4-cyanobutyl)-1H-indole-3-carbonyl)-L-valinate]","105 ± 3 % CP55,940",50.8,"95 ± 3 % CP55,940",13.5,159,,85.1,,,,,,,,,
